# In paper PMC5608556, “Photo-affinity labelling and biochemical analyses identify the target of trypanocidal simplified natural product analogues” (PLoS Neglected Tropical Diseases, 2017):
# Legend:
# HeLa = assay: Toxicity (EC50) in HeLa cells; format: cell-based; conditions: Homo sapiens, footnote b, read-out: EC50 values Mammal HeLa
# Text: Fig 1 Labelling and detection of B-THP-T target(s). (A) Structures of chamuvarinin and simplified analogues thereof as probes used in this study and their respective toxicity in selected cell lines. Bi-functional compound 3 contains a diazirine (blue) to cross-link the compound to its target and an alkyne handle (red) to which an azide-containing reporter probe can be added. Mono-functional compound 2 contains the diazirine to cross-link to its target but lacks the alkyne handle and cannot be appended with an azide reporter probe. Lead B-THP-T, compound 1, lacks both diazirine and alkyne. The additional functional groups on compounds 2 and 3 are minor alterations, which have little effect on inhibitor potency. (B) Overview of the in vivo pulse-chase photo-affinity labelling procedure. B-THP-T were incubated with live PF T. brucei cells and trafficked to their targets. Following UV-irradiation, only compounds containing a diazirine (i.e. compounds 2 and 3) could cross-link with target proteins. The subsequent “click reaction” appended the conjugated B-THP-T with a reporter probe as long as an alkyne handle was present (i.e. on compound 3). Refer to the experimental section for details. (C) Detection of Cy5.5-tagged proteins following photo-affinity labelling. Proteins were separated by SDS-PAGE and conjugated Cy5.5 was detected at 700 nm. […]
# [1] = target: T1, FoF1-ATP synthase F1 α-subunit (GFP-PTP tagged) (Trypanosoma brucei brucei, UniProt Q9GS23); assay: In vivo photo-affinity labelling of GFP-PTP-tagged F1 α-subunit, Cy5.5 detection; format: binding; conditions: 50 μM, in vivo pulse-chase, UV 365 nm
# T1 construct: expressed in transfected cells; host or cells: procyclic-form T. brucei strain 29-13, stably transfected with MfeI-linearised pC-F1α-GFP-PTP (recombination into the endogenous gene)
# Protocol: Fig 7 B-THP-Ts bind to C-terminal GFP-PTP tagged F1 α- and β- subunits. (A) Stably transfected PF T. brucei cells endogenously-expressing F1 α-GFP-PTP or F1 β-GFP-PTP were loaded with MitoTracker Red CMXros (red) and DAPI (blue) and imaged microscopically to determine localisation of GFP-PTP-tagged protein. […] (B) Following in vivo photo-affinity labelling with 50 μM compound 3 or compound 1 (negative control), GFP-PTP-tagged F1 α- and β-subunits were affinity purified and Cy5.5 clicked on. Proteins were separated by SDS-PAGE and a western blot was performed with mouse anti-GFP / anti-mouse-DyLight 800. […]
# Pulse-chase in vivo photo-affinity labelling with bi-functional compound 3 (and lead compound 1 as negative control) was performed on cells from both cell lines expressing GFP-PTP-tagged F1 α- or β-subunits. Tagged subunits were immobilised on IgG-sepharose beads, purified, and Cy5.5 fluorescent reporter clicked on, and proteins were detected by western blotting (Fig 7B). […] In trypanosomatids (but not in other organisms) the native α-subunit is expressed as a 63 KDa protein which is then cleaved by an unknown protease to 20 KDa N-terminal and 43 KDa C-terminal domains, both of which remain associated with the FoF1-ATP synthase complex. […]
# T1 sequence (Q9GS23 160-584): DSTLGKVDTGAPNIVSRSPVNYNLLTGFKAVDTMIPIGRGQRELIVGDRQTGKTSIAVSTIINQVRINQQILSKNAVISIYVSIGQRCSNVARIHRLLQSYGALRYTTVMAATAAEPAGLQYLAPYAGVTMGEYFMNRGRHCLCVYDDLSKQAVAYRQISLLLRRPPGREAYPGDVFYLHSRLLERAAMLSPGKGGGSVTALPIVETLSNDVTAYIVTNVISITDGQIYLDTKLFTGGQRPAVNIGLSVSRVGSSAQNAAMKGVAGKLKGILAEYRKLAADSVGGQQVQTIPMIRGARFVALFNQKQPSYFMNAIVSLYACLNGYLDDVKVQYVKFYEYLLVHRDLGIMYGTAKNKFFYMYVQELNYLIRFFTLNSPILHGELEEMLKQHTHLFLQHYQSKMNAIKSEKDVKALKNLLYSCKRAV
smiles,measurement,setting,value
C#CCNC(=O)CCC[C@H]1CC2(C[C@@H](Cn3cc([C@@H]4CCC[C@H](CCCCOCc5ccccc5)O4)nn3)O1)N=N2 [Compound 3],EC50,HeLa,21.3 ± 2 µM
same,UV-conjugation (Cy5.5 labelling at 700 nm) to F1 α-GFP-PTP,[1],can UV-conjugate
